Measurements from patent publication US20230310455A1, “COMBINATION THERAPIES FOR TREATMENT OF HER2 CANCER” (Genentech, Inc., priority 2020, published 2023).

Key:
[1] = test system: HER2 negative (PIK3CA-mutant) breast cancer cell lines; experiment: Viability assay (CellTiter-Glo), HER2 negative breast cancer cell lines; format: cell-based; details: viability by ATP quantification
From the text: (§1) In a cell proliferation assay, we investigated the effect of inavolisib and alpelisib (both PI3Kα specific inhibitors) on vialibility of breast cancer cell lines having different HER2 expression and PIK3CA mutant status. Unexpectedly, we observed a significant difference between the sensitivity of inavolisib and alpelisib in HER2 amplified (˜20 fold difference between the mean IC50 values) versus HER2 negative cell lines (˜6-fold difference between two inhibitors). Both inhibitors were not differentiated in wild-type (WT) cell lines regardless of HER2 status (FIG. 1).
(§2) Cell lines were obtained from the ATCC. All cell lines underwent authentication by Short Tandem Repeat profiling, SNP fingerprinting, and mycoplasma testing (Yu M. et al. “A resource for cell line authentication, annotation and quality control” Nature 520, 307-311 (2015)). Cell lines were grown under standard tissue-culture conditions in RPMI media with 10% fetal bovine serum (Gibco, 10082-147), 100 U/mL penicillin-streptomycin (Gibco, 15140-122), 2 mmol/L L-glutamine (Gibco, 15030-081). […]
(§3) Viability assay: Cells were seeded (1000-2000 cells/well) in 384-well plates for 16 hours. […] After 4 days, relative numbers of viable cells were measured by luminescence using CellTiter-Glo® (Promega) according to the manufacturer's instructions and read on a Wallac Multilabel Reader (PerkinElmer, Foster City). […]

[2] = test system: KPL-4 (HER2-positive, PIK3CA H1047R) breast cancer xenograft; experiment: In vivo tumor growth inhibition, KPL-4 breast cancer xenograft model; details: inavolisib 25 mg/kg orally daily 28 days, trastuzumab 3 mg/kg and pertuzumab 2.5 mg/kg i.p. weekly 4 weeks
Experimental: The in vivo efficacy of the test compounds and combinations was tested in a KPL-4 (HER2-positive, PIK3CA H1047R) breast cancer xenograft model. […] Tumor volumes were measured using Ultra Cal-IV calipers (Model 54-10-111; Fred V. Fowler Co.; Newton, MA). The following formula was used in Excel, version 11.2 to calculate tumor volume: Tumor Volume (mm^3)=(Length×Width^2)×0.5. Mice for efficacy studies were distributed into 8-10 mice/group with a mean tumor volume of 200 to 250 mm^3 at the initiation of dosing. A linear mixed effect (LME) modeling approach was used to analyze the repeated measurement of tumor volumes from the same animals over time (Pinheiro et al., “Linear and Nonlinear Mixed Effects Models” R package version 3; 1-131 (2017)). Cubic regression splines were used to fit a non-linear profile to the time courses of log^2 tumor volume at each dose level. These non-linear profiles were then related to dose within the mixed model. Tumor growth inhibition as a percentage of vehicle control (%TGI) was calculated as the percentage of the area under the fitted curve (AUC) for the respective dose group per day in relation to the vehicle, using the following formula: %TGI=100×(1−AUCdose/AUCvehicle).
Tumor sizes and mouse body weights were recorded twice weekly, and mice with tumor volume exceeding 2000 mm^3 or body weight loss of 20% of starting weight were promptly euthanized.

[3] = test system: HER2 amplified (HER2-positive PIK3CA-mutant) breast cancer cell lines; experiment: Viability assay (CellTiter-Glo), HER2 amplified breast cancer cell lines; format: cell-based; details: viability by ATP quantification
From the text: as §1, §2, §3

[4] = molecular target: Class I PI3K alpha isoform (PI3Kα) versus Class I PI3K beta, delta, and gamma isoforms (Homo sapiens, UniProt P42336); details: cited from earlier work
Class I PI3K alpha isoform (PI3Kα) versus Class I PI3K beta, delta, and gamma isoforms, sequence (P42336 whole entry, canonical isoform): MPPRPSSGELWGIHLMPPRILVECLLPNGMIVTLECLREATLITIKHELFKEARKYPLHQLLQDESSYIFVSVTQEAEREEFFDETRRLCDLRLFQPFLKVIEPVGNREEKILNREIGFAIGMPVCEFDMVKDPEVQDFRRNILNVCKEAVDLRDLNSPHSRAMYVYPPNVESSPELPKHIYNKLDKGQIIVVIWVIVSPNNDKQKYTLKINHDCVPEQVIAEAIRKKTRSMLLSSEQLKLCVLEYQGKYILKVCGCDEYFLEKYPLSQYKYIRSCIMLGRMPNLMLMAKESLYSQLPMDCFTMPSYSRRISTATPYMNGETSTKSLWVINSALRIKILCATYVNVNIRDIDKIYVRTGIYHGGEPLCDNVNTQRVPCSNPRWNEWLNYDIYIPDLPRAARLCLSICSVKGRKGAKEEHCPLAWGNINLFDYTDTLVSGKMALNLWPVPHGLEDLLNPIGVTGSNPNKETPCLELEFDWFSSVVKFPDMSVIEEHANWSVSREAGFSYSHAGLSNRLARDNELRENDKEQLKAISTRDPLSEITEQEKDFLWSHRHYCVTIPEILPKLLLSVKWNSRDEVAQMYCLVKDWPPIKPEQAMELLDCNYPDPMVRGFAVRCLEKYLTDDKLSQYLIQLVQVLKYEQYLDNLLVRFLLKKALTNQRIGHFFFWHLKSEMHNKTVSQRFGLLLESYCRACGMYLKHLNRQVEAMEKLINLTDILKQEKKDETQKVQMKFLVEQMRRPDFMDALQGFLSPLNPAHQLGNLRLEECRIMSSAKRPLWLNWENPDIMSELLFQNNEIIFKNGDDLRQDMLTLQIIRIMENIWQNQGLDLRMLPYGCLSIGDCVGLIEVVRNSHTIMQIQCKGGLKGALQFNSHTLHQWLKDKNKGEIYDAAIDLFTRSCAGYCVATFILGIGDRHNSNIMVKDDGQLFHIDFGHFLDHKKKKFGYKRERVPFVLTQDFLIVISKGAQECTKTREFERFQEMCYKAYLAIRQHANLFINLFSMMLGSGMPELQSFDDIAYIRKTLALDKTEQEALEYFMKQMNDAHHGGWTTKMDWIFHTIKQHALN
Class I PI3K alpha isoform (PI3Kα) versus Class I PI3K beta, delta, and gamma isoforms, sequence (P27986 whole entry partner, canonical isoform): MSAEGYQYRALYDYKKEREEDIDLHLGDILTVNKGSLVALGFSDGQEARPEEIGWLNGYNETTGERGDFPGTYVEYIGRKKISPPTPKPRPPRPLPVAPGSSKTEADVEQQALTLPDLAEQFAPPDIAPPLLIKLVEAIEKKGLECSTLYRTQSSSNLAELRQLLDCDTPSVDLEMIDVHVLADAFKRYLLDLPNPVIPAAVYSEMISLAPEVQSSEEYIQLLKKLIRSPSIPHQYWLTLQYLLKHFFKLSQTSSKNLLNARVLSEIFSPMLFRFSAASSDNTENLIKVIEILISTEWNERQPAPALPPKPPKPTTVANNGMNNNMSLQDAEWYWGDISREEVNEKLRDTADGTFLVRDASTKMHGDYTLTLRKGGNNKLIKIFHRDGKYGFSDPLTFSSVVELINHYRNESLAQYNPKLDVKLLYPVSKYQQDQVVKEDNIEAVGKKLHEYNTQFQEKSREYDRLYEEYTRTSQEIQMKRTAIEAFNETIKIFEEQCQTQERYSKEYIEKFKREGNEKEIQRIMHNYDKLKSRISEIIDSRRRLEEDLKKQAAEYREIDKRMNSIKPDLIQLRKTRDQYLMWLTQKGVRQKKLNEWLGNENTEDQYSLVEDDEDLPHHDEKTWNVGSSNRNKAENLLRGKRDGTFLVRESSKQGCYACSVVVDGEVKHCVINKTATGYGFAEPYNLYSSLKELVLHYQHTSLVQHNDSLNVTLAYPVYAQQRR

difference between two inhibitors (mean IC50 values of inavolisib and alpelisib) [1]: 6 fold | difference between the mean IC50 values of inavolisib and alpelisib [3]: ~20 fold
Compound: C[C@H](Nc1ccc2c(c1)OCCn1cc(N3C(=O)OC[C@H]3C(F)F)nc1-2)C(N)=O [inavolisib, (S)-2-((2-((S)-4-(difluoromethyl)-2-oxooxazolidin-3-yl)-5,6-dihydrobenzo[f]imidazo[1,2-d][1,4]oxazepin-9-yl)amino)propanamide]
Growth Effect Duration [2]: >31.0 | Growth Rate Contrast [2]: −0.069 | Growth Contrast ([2]; 9 mice per group): −0.086 | less potent biochemical inhibition for other Class I PI3K beta, delta, and gamma isoforms (selectivity for PI3Kα) [4]: > 300 fold
